{"source": "patent US7094760B2", "about": "“Peptides for treatment of inflammation and shock” (Salpep Biotechnology, Inc., priority 1996, dated 2006)", "key": {"human neutrophils": {"system": "human neutrophils", "assay": "superoxide anion production in vitro, human neutrophils", "type": "cell-based", "conditions": "for superoxide anion production: 10^−7M PMA", "procedure": "Neutrophils (10^6) were suspended in PBS buffer of the following composition: NaCl 137 mM, KCl 2.7 mM, Na2HPO4, 8.1 mM, KH2PO4 1.47 mM, CaCl2 1.19 mM, MgCl2 0.54 mM, glucose 7.5 mM and cytochrome C 1.5 mM (Sigma Chemical Co. St. Louis, […].) incubated at 37 C. Each sample was read along with a reference sample containing 1440 units of superoxide dismutase (Sigma) in a spectrophotometer (Hitachi, U200 spectrophotometer). The rate of superoxide production in response to 10^−7M phorbol myristate acetate (PMA) or 10^−5 M N-formyl-methionyl-leucyl-phenylalanine (fMLP) was then inferred from the slope. (Derian et al., (1996), Biochemistry 35(4): 1265–9).\nNeutrophils obtained either from carrageenin-soaked sponges implanted subcutaneously in rats, or from the blood of healthy human volunteers, were preincubated with various doses of SGP-T for 30 minutes, then stimulated with 10^−7M PMA and the rate of superoxide anion production determined. At doses less than 1 μM, SGP-T inhibited superoxide anion production by both rat and human neutrophils, although the rat neutrophils were approximately 10-fold less sensitive than human neutrophils to this inhibitor effect (FIG. 6). At higher doses of the peptide(>1 μM), an enhancement of superoxide anion production was evident with human neutrophils.\nAt 0.001 and 0.01 μM SGP-T, O2^− production was inhibited by 15 to 20% in human neutrophils, while 10-fold higher concentrations were required for such inhibition with rat neutrophils. Much higher concentrations of SGP-T (10 and 20 μM) stimulated O2^− production by human neutrophils. Each value is presented as the mean ±SEM, and the number of experiments was between 6 and 12."}, "[1]": {"system": "ovalbumin-sensitized Sprague-Dawley rats", "assay": "anaphylactic hypotension (VPSP), ovalbumin-sensitized rats, Example 8", "type": "in vivo, rat", "conditions": "intravenous, 100 μg/kg, 10 min prior to antigen", "procedure": "Animals and Tissue Preparation: Male Sprague-Dawley rats were sensitized to egg albumin (ovalbumin; OA) with 50 ng of Pertussin bortella toxin as an adjuvant. Four to six weeks after sensitization, the rats were anesthetized with sodium pentobarbital. A tracheal tube was inserted and a cannula was inserted into the left ventricle for measuring ventricular peak systolic pressure (VPSP). This cannula was coupled to a blood pressure transducer. A cannula was also inserted into the jugular view for administration of peptide (100 μg/kg) and antigen (100 μg of OA). The peptides were injected intravenously 10 min prior to antigen injection and blood pressure was recorded for 30 min.\nIn a second study, the peptide feG (D-phenylalanine, D-glutamate, glycine) was administered orally by a stomach tube 1 hour prior to intravenous injection of the sensitizing antigen.\nData Analysis: The percent changes in VSPS induced by anaphyalctic reaction were calculated relative to baseline VPSP. Significance differences within groups were determined with one-way analysis of variance (ANOVA), and between groups with the Student t-test."}}, "data": [{"substance": "NH2-Thr-Asp-Ile-Phe-Glu-Gly-Gly-COOH (H-TDIFEGG-OH) [SGP-T, submandibular gland peptide T, TDIFEGG]", "values": [{"measurement": "O2− production", "setting": "human neutrophils; 10 and 20 μM", "value": "stimulated"}, {"measurement": "superoxide anion production", "setting": "human neutrophils; doses less than 1 μM", "value": "inhibited"}, {"measurement": "superoxide anion production", "setting": "human neutrophils; higher doses (>1 μM)", "value": "enhancement"}, {"measurement": "anaphylactic hypotension (VPSP)", "setting": "[1]", "value": "significantly inhibited"}]}]}
